Test results published in patent US20240150370A1, “BICYCLIC PYRIDINE DERIVATIVE” (Sumitomo Pharma Co., Ltd., priority 0001, published 2024).
Where a name gives a salt, the structure may show the parent alone.

Molecular target: human TAAR1 receptor (Homo sapiens (Human), UniProt Q96RJ0)
Assay: Evaluation of agonist activity on human TAAR1 receptor (cAMP assay)
Assay type: cell-based
Conditions: cAMP in human TAAR1-expressing CHO cells, relative to 100 μM tyramine; for activation at 0.1 µM / activation at 1 µM / activation at 10 µM: CHO, 0.5 h, read-out: TAAR1 agonist activity at each concentration (%)
Description: TAAR1 is a G protein-coupled receptor that binds to G proteins (Gas), and activation of the TAAR1 receptor by agonists induces an increase in intracellular cAMP levels. Therefore, the agonist activity of the sample on the human TAAR1 receptor was evaluated using the cAMP assay method.
cAMP Hunter™ CHO-K1 TAAR1 Gs Cell Line, a cell expressing human TAAR1 receptor, was purchased. Human TAAR1-expressing CHO cells were seeded in a 96-well plate, and after culturing for 24 hours, a sample dissolved in DMSO was added and incubated at 37° C. for 30 minutes. A sample for cAMP measurement was prepared according to the cAMPHiRange kit protocol. The amount of cAMP produced by the sample was measured by time-resolved fluorescence using EnVision (excitation wavelength: 330 nm, fluorescence wavelength […]/665 nm).
Sample %=100×{(Csamp)−(Cblank)}/{(Ctyramine)−(Cblank)} • Csamp: count of sample, Ctyramine: count of 100 μM tyramine, Cblank: count of blank

Sequence of human TAAR1 receptor (Q96RJ0 whole entry): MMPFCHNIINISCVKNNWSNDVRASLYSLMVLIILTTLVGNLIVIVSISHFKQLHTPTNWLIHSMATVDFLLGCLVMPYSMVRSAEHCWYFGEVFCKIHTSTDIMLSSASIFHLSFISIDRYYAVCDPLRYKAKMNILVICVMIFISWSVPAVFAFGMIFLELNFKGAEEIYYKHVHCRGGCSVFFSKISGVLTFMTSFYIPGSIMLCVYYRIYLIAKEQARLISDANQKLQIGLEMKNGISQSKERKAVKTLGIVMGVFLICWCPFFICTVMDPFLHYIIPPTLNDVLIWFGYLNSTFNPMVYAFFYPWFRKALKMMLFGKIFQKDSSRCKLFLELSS

| SMILES | activation at 0.1 µM (100 nM) [%] | activation at 1 µM (1000 nM) [%] | activation at 10 µM (10000 nM) [%] | TAAR1 agonist activity at each concentration (%) (100 nM) | TAAR1 agonist activity at each concentration (%) (1000 nM) | TAAR1 agonist activity at each concentration (%) (10000 nM) |
| --- | --- | --- | --- | --- | --- | --- |
| C[C@H]1COc2cccnc2[C@@H]1CN (racemic) [Example 1, rac-1-[(3R,4S)-3-methyl-3,4-dihydro-2H-pyrano[3,2-b]pyridin-4-yl]methanamine dihydrochloride] | 2 | 18 | 54 | – | – | – |
| CNC[C@@H]1C[C@@H](C)Oc2cccnc21 (racemic) [Example 7] | 17 | 56 | 75 | – | – | – |
| C[C@H]1C[C@@H](CN)c2ncccc2S1 (racemic) [Example 13] | 4 | 31 | 63 | – | – | – |
| CC(C)[C@H]1Oc2cccnc2[C@@H]1CN (racemic) [Example 21] | 0 | 23 | 81 | – | – | – |
| NC[C@H]1c2ncccc2O[C@@H]1CO (racemic) [Example 26] | 0 | 25 | 73 | – | – | – |
| COC[C@H]1Oc2cccnc2[C@@H]1CN (racemic) [Example 32] | 1 | 4 | 22 | – | – | – |
| NC[C@H]1c2ncccc2O[C@H]2CCCC[C@@H]21 (racemic) [Example 33, rac-1-[(5aS,9aR,10S)-6,7,8,9,9a,10-hexahydro-5aH-[1]benzpyrano[3,2-b]pyridine-10-yl]methanamine dihydrochloride] | 4 | 22 | 52 | – | – | – |
| C[C@H]1Oc2cccnc2[C@H]1CN (racemic) [Example 36, rac-1-[(2R,3R)-2-methyl-2,3-dihydrofuro[3,2-b]pyridin-3-yl]methanamine dihydrochloride] | 0 | 20 | 67 | – | – | – |
| CC[C@@H]1C[C@H](CN)c2ncccc2O1 (racemic) [Example 60] | 7 | 40 | 82 | – | – | – |
| CC[C@@H]1C[C@@H](CN)c2ncccc2O1 (racemic) [Example 61] | 2 | 22 | 66 | – | – | – |
| C[C@@H]1[C@H](CN)c2ncccc2O[C@@H]1C (racemic) [Example 62, rac-1-[(2R,3R,4R)-2,3-dimethyl-3,4-dihydro-2H-pyrano[3,2-b]pyridin-4-yl]methanamine dihydrochloride] | 2 | 20 | 66 | – | – | – |
| C[C@H]1[C@H](CN)c2ncccc2O[C@@H]1C (racemic) [Example 63] | 3 | 22 | 62 | – | – | – |
| NC[C@H]1CCSc2cccnc21 (single isomer, unassigned) [Example 39, dihydrochloride] | 1 | 12 | 48 | – | – | – |
| C[C@H]1COc2cccnc2[C@H]1CN (stereo in doubt) [Example 3, rel-1-[(3R,4R)-3-methyl-3,4-dihydro-2H-pyrano[3,2-b]pyridin-4-yl]methanamine dihydrochloride] | 0 | 1 | 9 | – | – | – |
| C[C@@H]1COc2cccnc2[C@@H]1CN (stereo in doubt) [Example 4, rel-1-[(3S,4S)-3-methyl-3,4-dihydro-2H-pyrano[3,2-b]pyridin-4-yl]methanamine dihydrochloride] | 17 | 55 | 67 | – | – | – |

The remaining lines, values ahead:

| activation at 0.1 µM (100 nM) [%] | activation at 1 µM (1000 nM) [%] | activation at 10 µM (10000 nM) [%] | TAAR1 agonist activity at each concentration (%) (100 nM) | TAAR1 agonist activity at each concentration (%) (1000 nM) | TAAR1 agonist activity at each concentration (%) (10000 nM) | SMILES |
| --- | --- | --- | --- | --- | --- | --- |
| 0 | 7 | 40 | – | – | – | C[C@H]1[C@H](C)Oc2cccnc2[C@H]1CN (racemic) [Example 64] |
| 0 | 28 | 67 | – | – | – | C[C@@H]1[C@H](C)Oc2cccnc2[C@H]1CN (racemic) [Example 65] |
| – | – | – | 6 | 37 | 70 | C[C@H]1Oc2cc(Cl)cnc2[C@@H]1CN (racemic) [Example 85] |
| 1 | 8 | 40 | – | – | – | CC[C@H]1COc2cccnc2[C@@H]1CN (racemic) [Example 86] |
| 4 | 25 | 63 | – | – | – | CC[C@@H]1COc2cccnc2[C@@H]1CN (racemic) [Example 87] |
| 0 | 23 | 48 | – | – | – | Cc1ccc(-c2ccnc3c2CCCC3CN)cc1 (racemic) [Example 89, rac-1-[4-(4-methylphenyl)-5,6,7,8-tetrahydroquinolin-8-yl]methanamine dihydrochloride] |
| 0 | 14 | 49 | – | – | – | NCC1CCc2c(OC3CCC3)ccnc21 (racemic) [Example 91, rac-1-[4-(cyclobutyloxy)-6,7-dihydro-5H-cyclopenta[b]pyridin-7-yl]methanamine dihydrochloride] |
| 0 | 0 | 0 | – | – | – | Cc1ccnc2c1CCCC2CN (racemic) [Example 92, rac-1-(4-methyl-5,6,7,8-tetrahydroquinolin-8-yl)methanamine] |
| 38 | 70 | 78 | – | – | – | CC1(C)Oc2ccc(F)nc2C1CN (racemic) [Example 106, rac-1-(5-fluoro-2,2-dimethyl-2,3-dihydrofuro[3,2-b]pyridin-3-yl)methanamine dihydrobromide] |
| 59 | 90 | 96 | – | – | – | [2H][C@]1(C)Oc2cccnc2[C@H]1CN (relative stereo) [Example 95, rel-1-[(2R,3S)-2-methyl(2-^2H)-2,3-dihydrofuro[3,2-b]pyridin-3-yl]methanamine dihydrochloride] |
| 3 | 28 | 66 | – | – | – | NC[C@@H]1c2ncccc2OC12CC2 (single isomer, unassigned) [Example 96, rel-1-[(3′R)-3′H-spiro[cyclopropane-1,2′-furo[3,2-b]pyridine]-3′-yl]methanamine dihydrochloride] |
| 1 | 9 | 37 | – | – | – | NC[C@@H]1c2ncc(Cl)cc2OC12CC2 (single isomer, unassigned) [Example 98, rel-1-[(3′R)-6′-chloro-3′H-spiro[cyclopropane-1,2′-furo[3,2-b]pyridine]-3′-yl]methanamine dihydrochloride] |
| 9 | 39 | 62 | – | – | – | NC[C@H]1c2ncc(Cl)cc2OC12CC2 (single isomer, unassigned) [Example 99, rel-1-[(3'S)-6′-chloro-3′H-spiro[cyclopropane-1,2′-furo[3,2-b]pyridine]-3′-yl]methanamine dihydrochloride] |
| 0 | 17 | 50 | – | – | – | Cc1ccc2c(n1)[C@@H](CN)C1(CC1)O2 (single isomer, unassigned) [Example 100, rel-1-[(3′R)-5′-methyl-3′H-spiro[cyclopropane-1,2′-furo[3,2-b]pyridine]-3′-yl]methanamine dihydrochloride] |
| 62 | 79 | 84 | – | – | – | Cc1ccc2c(n1)[C@H](CN)C1(CC1)O2 (single isomer, unassigned) [Example 101, rel-1-[(3'S)-5′-methyl-3′H-spiro[cyclopropane-1,2′-furo[3,2-b]pyridine]-3′-yl]methanamine dihydrochloride] |
| 1 | 18 | 59 | – | – | – | NC[C@@H]1c2nc(F)ccc2OC12CC2 (single isomer, unassigned) [Example 102, rel-1-[(3′R)-5′-fluoro-3′H-spiro[cyclopropane-1,2′-furo[3,2-b]pyridine]-3′-yl]methanamine dihydrobromide] |
| 60 | 84 | 89 | – | – | – | NC[C@H]1c2nc(F)ccc2OC12CC2 (single isomer, unassigned) [Example 103, rel-1-[(3'S)-5′-fluoro-3′H-spiro[cyclopropane-1,2′-furo[3,2-b]pyridine]-3′-yl]methanamine dihydrobromide] |
| 0 | 5 | 31 | – | – | – | Cc1ccc2c(n1)[C@@H](CN)C(C)(C)O2 (single isomer, unassigned) [Example 104, dihydrochloride] |
| 64 | 77 | 79 | – | – | – | Cc1ccc2c(n1)[C@H](CN)C(C)(C)O2 (single isomer, unassigned) [Example 105, dihydrochloride] |
